Experimental data published in PubChem BioAssay AID240 (DTP/NCI, 2004).
Where “and” joins values, the source holds several entries; their conditions need not be identical. Identical values can stand only once. Toxic doses and inconclusive results are not listed. Starred links: 1 amine or outer side, 2 acyl side, 3 side chain; linkers in the order of their positions; H or OH if unused. Positions of bridges follow the written chain, without caps; N, C: chain ends. Non-standard residues stand in square brackets, D forms with d. Residues, ends and D or L forms follow the SMILES beside them. Chains are numbered I, II in the order given. Actinocin(9to1) = Cc1c2oc3c(C)ccc(C(=O)[*:1])c3nc-2c(C(=O)[*:2])c(N)c1=O; aThr = C[C@H](O)[C@H](N)C(=O)O; NMeV = CN[C@H](C(=O)O)C(C)C; Sar = CNCC(=O)O

System: Lymphoma 4 ip in BDF1 mice, median survival
Experiment: NCI In Vivo Anticancer Drug Screen. Data for tumor model Lymphoma 4 (intraperitoneal) in B6D2F1 (BDF1) mice
Conditions: endpoint: median survival time, schedule: Q01DX010 (ip), higher = longer survival
Procedure: The antitumor activity of compounds was measured in mice bearing transplantable tumors. Survival or tumor size were measured and the results are expressed as the measurement made in the treated group (T) divided by the measurement made in the vehicle treated control group (C). The tumor model used in this assay is Lymphoma 4 (intraperitoneal) in B6D2F1 (BDF1) mice

[1] = dose: 25.0 mg/kg/injection, vehicle: saline
[2] = dose: 50.0 mg/kg/injection, vehicle: saline
[3] = dose: 100.0 mg/kg/injection, vehicle: saline
[4] = dose: 5.0 mg/kg/injection, vehicle: saline
[5] = dose: 10.0 mg/kg/injection, vehicle: saline
[6] = dose: 20.0 mg/kg/injection, vehicle: saline
[7] = dose: 200.0 mg/kg/injection, vehicle: saline
[8] = dose: 31.3 mg/kg/injection, vehicle: saline
[9] = dose: 125.0 mg/kg/injection, vehicle: saline
[10] = dose: 1.25 mg/kg/injection, vehicle: saline
[11] = dose: 2.5 mg/kg/injection, vehicle: saline
[12] = dose: 0.5 mg/kg/injection, vehicle: saline
[13] = dose: 1.0 mg/kg/injection, vehicle: saline
[14] = dose: 2.0 mg/kg/injection, vehicle: saline

Question: Which T/C [1] does the source give for CCN(CC)CCNc1ccc(C)c2sc3ccccc3c(=O)c12 here?
Answer: 103 % of control

Question: And the T/C [2]?
Answer: 120 % of control and 123 % of control

Question: What about the T/C [3] of the same compound?
Answer: 103 % of control

Question: Which results are given for Cc1c2oc3c(C)ccc(C(=O)N[C@@H]4C(=O)N[C@H](C(C)C)C(=O)N5CCC[C@H]5C(=O)N(C)CC(=O)N(C)[C@@H](C(C)C)C(=O)O[C@H]4C)c3nc-2c(C(=O)N[C@@H]2C(=O)N[C@H](C(C)C)C(=O)N3CCC[C@H]3C(=O)N(C)CC(=O)N(C)[C@@H](C(C)C)C(=O)O[C@H]2C)c(N)c1=O (I: [aThr][dV]P[Sar][NMeV] / II: [aThr][dV]P[Sar][NMeV]; ester I:1-I:C, II:1-II:C; linker I:N-II:N via Actinocin(9to1))?
Answer: T/C (dose: 12.5 micrograms/kg/injection, vehicle: other): 114 % of control and 123 % of control; T/C (dose: 25.0 micrograms/kg/injection, vehicle: other): 123 % of control; T/C (dose: 50.0 micrograms/kg/injection, vehicle: other): 150 % of control and 179 % of control; T/C (dose: 100.0 micrograms/kg/injection, vehicle: other): 194 % of control

Question: For O=c1[nH]cc(F)c(=O)[nH]1, which T/C [4] is on record?
Answer: 161 % of control

Question: What about the T/C [5] of the same compound?
Answer: 179 % of control and 180 % of control

Question: What about the T/C [6] of the same compound?
Answer: 193 % of control and 246 % of control

Question: Which T/C [1] does the source give for OC(CBr)C(O)C(O)C(O)CBr (centres undefined) here?
Answer: 115 % of control

Question: What about the T/C [2] of the same compound?
Answer: 115 % of control

Question: What about the T/C [7] of the same compound?
Answer: 115 % of control

Question: How did the T/C (dose: 15.6 mg/kg/injection, vehicle: saline) turn out when COc1ccc2c(c1OC)C(=O)O[C@@H]2[C@H]1c2c(cc3c(c2OC)OCO3)CCN1C was run?
Answer: 107 % of control

Question: What about the T/C [8] of the same compound?
Answer: 106 % of control and 107 % of control

Question: What about the T/C (dose: 62.5 mg/kg/injection, vehicle: saline) of the same compound?
Answer: 96 % of control and 107 % of control

Question: What about the T/C [9] of the same compound?
Answer: 93 % of control and 96 % of control

Question: What about the T/C (dose: 250.0 mg/kg/injection, vehicle: saline) of the same compound?
Answer: 93 % of control

Question: Which results are given for CCCSc1ncnc2nc[nH]c12?
Answer: T/C [8]: 93 % of control and 96 % of control; T/C [9]: 93 % of control and 96 % of control

Question: CC1CN1P(=S)(N1CC1C)N1CC1C (centres undefined) was tested. Which T/C [10] did it give?
Answer: 103 % of control

Question: And the T/C [11]?
Answer: 93 % of control and 115 % of control

Question: What about the T/C [4] of the same compound?
Answer: 100 % of control and 111 % of control

Question: And the T/C [5]?
Answer: 111 % of control and 120 % of control

Question: What about the T/C [6] of the same compound?
Answer: 115 % of control

Question: Nc1nc(=S)c2ncn(C3OC(CO)C(O)C3O)c2[nH]1 (centres undefined) was tested. Which T/C (dose: 0.25 mg/kg/injection, vehicle: saline) did it give?
Answer: 100 % of control

Question: What about the T/C [12] of the same compound?
Answer: 106 % of control

Question: And the T/C [13]?
Answer: 102 % of control and 115 % of control

Question: What about the T/C [14] of the same compound?
Answer: 100 % of control

Question: Which T/C (dose: 3.13 mg/kg/injection, vehicle: saline) does the source give for N=[N+]=CC(=O)OCC(N)C(=O)O (centres undefined) here?
Answer: 102 % of control and 111 % of control

Question: And the T/C (dose: 6.25 mg/kg/injection, vehicle: saline)?
Answer: 102 % of control and 108 % of control

Question: What about the T/C (dose: 12.5 mg/kg/injection, vehicle: saline) of the same compound?
Answer: 91 % of control and 114 % of control

Question: Nc1nc(=S)c2[nH]cnc2[nH]1 was tested. Which T/C (dose: 1.25 mg/kg/injection, vehicle: other) did it give?
Answer: 88 % of control

Question: And the T/C [10]?
Answer: 94 % of control

Question: And the T/C [11]?
Answer: 88 % of control

Question: O=C(Nc1ccc(C2=NCCN2)cc1)c1cccc(C(=O)Nc2ccc(C3=NCCN3)cc2)c1 was tested. Which T/C (dose: 8.0 mg/kg/injection, vehicle: saline) did it give?
Answer: 113 % of control and 121 % of control

Question: What about the T/C (dose: 16.0 mg/kg/injection, vehicle: saline) of the same compound?
Answer: 120 % of control

Question: What about the T/C (dose: 32.0 mg/kg/injection, vehicle: saline) of the same compound?
Answer: 170 % of control and 189 % of control

Question: And the T/C (dose: 64.0 mg/kg/injection, vehicle: saline)?
Answer: 235 % of control

Question: Which results are given for COCCCNP(=S)(N1CC1)N1CC1?
Answer: T/C [12]: 93 % of control; T/C [13]: 100 % of control; T/C [14]: 113 % of control; T/C (dose: 4.0 mg/kg/injection, vehicle: saline): 116 % of control

Question: How did the T/C (dose: 18.8 mg/kg/injection, vehicle: saline) turn out when CN(C)c1nc(N(C)C)nc(N(C)C)n1 was run?
Answer: 96 % of control and 100 % of control

Question: And the T/C (dose: 37.5 mg/kg/injection, vehicle: saline)?
Answer: 100 % of control

Question: And the T/C (dose: 75.0 mg/kg/injection, vehicle: saline)?
Answer: 100 % of control

Question: What about the T/C (dose: 150.0 mg/kg/injection, vehicle: saline) of the same compound?
Answer: 100 % of control and 103 % of control

Question: Which results are given for CS(=O)(=O)OCCC(=O)N1CCN(C(=O)CCOS(C)(=O)=O)CC1?
Answer: T/C [3]: 237 % of control; T/C [7]: 303 % of control
